ChEMBL document CHEMBL1201862, “PubChem BioAssay data set” (2004)
One block for each molecule: values may come before it. Calls of active or inactive are those of the source.

What was measured:
[1] = target: Luciferin 4-monooxygenase (Photinus pyralis, UniProt P08659); assay: inhibition of purified Photinus pyralis luciferase – biochemical, luminescence, dose response (AID 1891)
[2] = target: T1, Trace amine-associated receptor 1 (Homo sapiens, UniProt Q96RJ0); assay: Fluorescence-based cell-based high throughput dose response assay to identify agonists of the human trace amine associated receptor 1 (TAAR1).; assay type: functional
T1 sequence (Q96RJ0 whole entry): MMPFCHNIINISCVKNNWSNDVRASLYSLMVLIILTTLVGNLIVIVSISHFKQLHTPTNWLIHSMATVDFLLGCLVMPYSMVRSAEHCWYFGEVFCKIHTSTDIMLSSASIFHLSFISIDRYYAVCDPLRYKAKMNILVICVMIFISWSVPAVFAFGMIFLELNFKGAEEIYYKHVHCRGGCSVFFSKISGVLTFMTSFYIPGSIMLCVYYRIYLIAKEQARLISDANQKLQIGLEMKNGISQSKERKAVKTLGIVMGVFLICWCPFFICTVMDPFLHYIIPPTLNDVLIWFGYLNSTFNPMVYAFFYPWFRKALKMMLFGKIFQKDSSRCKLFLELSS

[3] = Luminescence Cell-Based Dose Confirmation HTS to Identify Inhibitors of Platelet Dense Granule Release. [Related pubchem assays: 1663 (Primary HTS), 1678 (Summary of Project)]; assay type: functional
[4] = cells; assay type: functional, cell-based
[5] = cells; assay type: functional, cell-based; remark: listed apart in the source
[6] = target: T1, Trace amine-associated receptor 1; assay: Counterscreen for agonists of the human trace amine associated receptor 1 (hTAAR1): Fluorescence-based cell-based high throughput dose response assay to identify hTAAR1 agonist that also desensitize TAAR1 receptor response.; assay type: functional
[7] = target: Dual specificity tyrosine-phosphorylation-regulated kinase 1A (Rattus norvegicus, UniProt Q63470); assay type: biochemical, Homo sapiens
[8] = target: Cytochrome P450 2D6 (Homo sapiens, UniProt P10635);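 also: CYP2D6 member of a cytochrome P450 panel assay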
Cytochrome P450 2D6, sequence (P10635 whole entry): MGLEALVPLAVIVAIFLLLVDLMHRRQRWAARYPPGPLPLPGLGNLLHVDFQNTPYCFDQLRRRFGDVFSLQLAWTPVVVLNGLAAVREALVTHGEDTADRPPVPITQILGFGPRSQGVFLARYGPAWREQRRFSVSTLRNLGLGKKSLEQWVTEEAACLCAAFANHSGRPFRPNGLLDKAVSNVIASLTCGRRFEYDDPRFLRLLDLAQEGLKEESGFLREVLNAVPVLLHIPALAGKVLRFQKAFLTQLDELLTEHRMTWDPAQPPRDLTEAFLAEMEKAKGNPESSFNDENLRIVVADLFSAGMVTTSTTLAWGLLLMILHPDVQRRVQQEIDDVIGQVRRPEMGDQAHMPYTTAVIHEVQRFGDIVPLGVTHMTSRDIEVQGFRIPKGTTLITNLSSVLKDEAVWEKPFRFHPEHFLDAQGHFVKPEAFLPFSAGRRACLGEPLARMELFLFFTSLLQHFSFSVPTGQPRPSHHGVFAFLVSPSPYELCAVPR

[9] = target: Cytochrome P450 3A4 (Homo sapiens, UniProt P08684);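 also: CYP3A4 tested as one member of a cytochrome P450 panel screen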
Cytochrome P450 3A4, sequence (P08684 whole entry): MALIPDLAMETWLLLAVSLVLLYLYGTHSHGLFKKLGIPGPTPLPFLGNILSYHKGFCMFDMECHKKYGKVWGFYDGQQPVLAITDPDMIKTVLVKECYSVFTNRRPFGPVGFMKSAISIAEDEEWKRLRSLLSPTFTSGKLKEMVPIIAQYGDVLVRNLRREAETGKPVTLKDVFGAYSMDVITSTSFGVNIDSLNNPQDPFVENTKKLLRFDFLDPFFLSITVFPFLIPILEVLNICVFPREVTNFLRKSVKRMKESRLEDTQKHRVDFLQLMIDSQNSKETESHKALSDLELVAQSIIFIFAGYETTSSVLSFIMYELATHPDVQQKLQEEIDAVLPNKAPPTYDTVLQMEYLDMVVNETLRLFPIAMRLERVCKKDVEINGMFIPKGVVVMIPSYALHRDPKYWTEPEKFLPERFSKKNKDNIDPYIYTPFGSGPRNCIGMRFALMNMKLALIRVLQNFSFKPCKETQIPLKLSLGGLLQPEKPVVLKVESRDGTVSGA

[10] = target: T2, Short transient receptor potential channel 4 (Mus musculus, UniProt Q9QUQ5); assay: calcium entry via TRPC4 opening agents – cell-based, HEK293 TRPC4/mu-opioid, Fluo-4 calcium, dose response (AID 434937); assay type: functional
T2 sequence (Q9QUQ5 whole entry): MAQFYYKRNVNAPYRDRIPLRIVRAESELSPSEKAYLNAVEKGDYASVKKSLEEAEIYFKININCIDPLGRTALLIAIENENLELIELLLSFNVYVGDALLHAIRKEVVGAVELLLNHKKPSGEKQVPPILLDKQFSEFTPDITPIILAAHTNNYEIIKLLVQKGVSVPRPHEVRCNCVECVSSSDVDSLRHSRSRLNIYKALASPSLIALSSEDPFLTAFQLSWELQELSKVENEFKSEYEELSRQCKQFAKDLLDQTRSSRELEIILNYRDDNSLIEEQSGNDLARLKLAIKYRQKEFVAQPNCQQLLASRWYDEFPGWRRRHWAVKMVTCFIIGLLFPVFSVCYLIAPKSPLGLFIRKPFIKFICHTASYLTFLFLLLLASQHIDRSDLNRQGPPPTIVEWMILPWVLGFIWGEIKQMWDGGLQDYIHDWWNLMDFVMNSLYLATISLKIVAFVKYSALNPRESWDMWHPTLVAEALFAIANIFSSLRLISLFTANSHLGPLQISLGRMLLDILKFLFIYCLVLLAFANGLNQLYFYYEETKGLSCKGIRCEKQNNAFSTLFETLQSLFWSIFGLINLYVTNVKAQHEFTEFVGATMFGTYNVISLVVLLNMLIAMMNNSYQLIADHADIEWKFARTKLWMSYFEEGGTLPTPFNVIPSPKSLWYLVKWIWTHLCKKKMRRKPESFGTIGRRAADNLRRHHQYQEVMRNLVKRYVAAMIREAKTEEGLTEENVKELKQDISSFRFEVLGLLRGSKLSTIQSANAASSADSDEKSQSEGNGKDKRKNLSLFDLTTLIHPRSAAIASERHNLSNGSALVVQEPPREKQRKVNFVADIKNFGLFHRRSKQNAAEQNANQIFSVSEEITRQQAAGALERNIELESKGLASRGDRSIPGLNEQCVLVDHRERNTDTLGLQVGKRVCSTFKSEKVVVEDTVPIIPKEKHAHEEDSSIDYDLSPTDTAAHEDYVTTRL

[11] = system: INS1; assay: INS-1E survival protection against cytokine death – cell-based, luminescence, retest, dose response (AID 449756); assay type: functional; details: Rattus norvegicus;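 also: cell death triggered by IL-1 beta plus TNF-alpha plus IFN-gamma mixture; protective hits raise ATP signal compared with cytokine alone wells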
[12] = target: Troponin, cardiac muscle (Homo sapiens, UniProt P19429+P45379+P63316); assay: Fluorescence-based biochemical high throughput dose response assay for activators of the calcium sensitivity of cardiac Regulated Thin Filaments (RTF). [Related pubchem assays (depositor defined):AID493008, AID493018, AID504382, AID504383]; assay type: protein-complex assay
[13] = system: Escherichia coli; assay: microbe, parasite or virus in culture
[14] = target: Cytochrome P450 2C9 (Homo sapiens, UniProt P11712)
Cytochrome P450 2C9, sequence (P11712 whole entry): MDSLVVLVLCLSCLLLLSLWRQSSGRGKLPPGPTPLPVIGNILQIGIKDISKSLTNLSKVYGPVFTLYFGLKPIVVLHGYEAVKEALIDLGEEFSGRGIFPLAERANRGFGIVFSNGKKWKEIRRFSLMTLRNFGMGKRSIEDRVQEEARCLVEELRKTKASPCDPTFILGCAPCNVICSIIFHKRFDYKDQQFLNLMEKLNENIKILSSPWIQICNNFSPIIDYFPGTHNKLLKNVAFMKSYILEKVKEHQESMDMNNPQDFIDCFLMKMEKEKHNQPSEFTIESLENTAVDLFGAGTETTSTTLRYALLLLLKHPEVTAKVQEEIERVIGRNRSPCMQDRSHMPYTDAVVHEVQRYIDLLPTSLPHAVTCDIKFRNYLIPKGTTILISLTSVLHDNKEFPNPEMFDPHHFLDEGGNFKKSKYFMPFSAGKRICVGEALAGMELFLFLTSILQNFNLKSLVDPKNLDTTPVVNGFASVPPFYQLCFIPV

[15] = target: Cytochrome P450 2C19 (Homo sapiens, UniProt P33261); assay: Cytochrome panel assay with activity outcomes. Panel member name: p450-cyp2c19 Compounds with AC50 equal or less than 10 uM are considered active; assay type: functional
Cytochrome P450 2C19, sequence (P33261 whole entry): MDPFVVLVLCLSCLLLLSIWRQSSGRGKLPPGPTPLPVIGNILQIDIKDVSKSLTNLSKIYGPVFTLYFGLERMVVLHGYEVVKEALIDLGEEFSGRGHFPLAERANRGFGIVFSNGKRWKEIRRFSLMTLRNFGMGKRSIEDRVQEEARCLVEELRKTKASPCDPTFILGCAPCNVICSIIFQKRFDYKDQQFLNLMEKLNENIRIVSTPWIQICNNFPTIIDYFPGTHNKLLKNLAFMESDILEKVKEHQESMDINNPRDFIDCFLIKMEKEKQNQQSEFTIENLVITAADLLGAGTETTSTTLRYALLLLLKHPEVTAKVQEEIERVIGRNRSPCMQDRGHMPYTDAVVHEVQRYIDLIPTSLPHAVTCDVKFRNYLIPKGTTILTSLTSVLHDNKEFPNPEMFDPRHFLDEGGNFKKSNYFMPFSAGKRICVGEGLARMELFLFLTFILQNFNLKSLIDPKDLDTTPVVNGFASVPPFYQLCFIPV

[16] = target: T3, Cytochrome P450 1A2 (Homo sapiens, UniProt P05177);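 also: PubChem cytochrome P450 panel assay, CYP1A2 panel member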
T3 sequence (P05177 whole entry): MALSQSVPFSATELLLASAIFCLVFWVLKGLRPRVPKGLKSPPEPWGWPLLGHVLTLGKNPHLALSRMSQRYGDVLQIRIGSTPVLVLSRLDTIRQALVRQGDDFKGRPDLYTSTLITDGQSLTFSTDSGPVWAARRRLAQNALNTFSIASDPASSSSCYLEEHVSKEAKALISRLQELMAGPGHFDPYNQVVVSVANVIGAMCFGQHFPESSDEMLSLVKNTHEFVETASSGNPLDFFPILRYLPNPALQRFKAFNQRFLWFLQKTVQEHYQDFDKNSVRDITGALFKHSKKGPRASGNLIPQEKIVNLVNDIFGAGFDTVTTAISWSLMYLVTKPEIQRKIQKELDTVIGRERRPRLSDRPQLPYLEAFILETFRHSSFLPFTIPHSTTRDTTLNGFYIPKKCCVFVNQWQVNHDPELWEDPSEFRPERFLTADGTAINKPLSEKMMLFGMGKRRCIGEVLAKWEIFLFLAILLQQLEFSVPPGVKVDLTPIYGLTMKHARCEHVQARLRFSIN

Luciferin 4-monooxygenase, sequence (P08659 whole entry): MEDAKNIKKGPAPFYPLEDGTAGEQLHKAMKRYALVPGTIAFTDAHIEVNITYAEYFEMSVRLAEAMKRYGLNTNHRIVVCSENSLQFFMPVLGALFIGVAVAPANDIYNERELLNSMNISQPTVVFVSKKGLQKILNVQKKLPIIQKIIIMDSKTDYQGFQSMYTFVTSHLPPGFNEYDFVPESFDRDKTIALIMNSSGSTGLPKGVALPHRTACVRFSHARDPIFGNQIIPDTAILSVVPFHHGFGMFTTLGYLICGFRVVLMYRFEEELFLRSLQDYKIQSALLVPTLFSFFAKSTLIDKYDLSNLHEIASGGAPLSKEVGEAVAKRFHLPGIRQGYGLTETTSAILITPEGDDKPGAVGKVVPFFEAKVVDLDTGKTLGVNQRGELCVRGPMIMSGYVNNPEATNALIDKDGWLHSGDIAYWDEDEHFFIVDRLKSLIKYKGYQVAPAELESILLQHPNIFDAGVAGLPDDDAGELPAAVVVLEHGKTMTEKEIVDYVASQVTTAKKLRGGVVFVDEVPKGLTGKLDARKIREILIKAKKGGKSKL

Structure (SMILES): Nc1nc(Nc2cccc(F)c2)nc2ccccc12
EC50 [1]: 0.853 µM (active)
EC50 [2]: 0.364 µM (active)
EC50 [3]: 7.18 µM (active)
EC50 [4]: > 29.9 µM (inactive)
IC50 [5]: > 29.9 µM (inactive)
IC50 [6]: 1.65 µM (active)
AC50 [7]: 4.73 µM (active)

AC50 [8]: inconclusive
Structure (SMILES): CC(C)=NOC[C@@H](O)COCc1ccco1

AC50 [9]: inconclusive
Structure (SMILES): O=[N+]([O-])c1ccc(CSc2ncnc3c2ncn3[C@@H]2O[C@@H](CO)[C@@H](O)[C@H]2O)cc1

Structure (SMILES): CCc1n[nH]c(CCN)n1
EC50 [10]: 3.76 µM (active)

Structure (SMILES): CC1(C)CCN2CCC(C)(C)c3c(O)ccc1c32
AC50 [11]: 7.71 µM (active)
EC50 [12]: 3.33 µM (active)

Structure (SMILES): Clc1ccc(OCCNCCc2ccccc2)cc1
EC50 [2]: 3.81 µM (active)
EC50 [4]: 21.9 µM (inactive)
IC50 [5]: > 29.9 µM (inactive)
IC50 [6]: 9.59 µM (active)
EC50 [10]: 4.73 µM (active)

Structure (SMILES): O=C(N/N=C/C1=C(N2CCOCC2)C(=C\c2ccccc2)/CC1)Nc1ccccc1
AC50 [13]: 67.6 µM (active)

AC50 [14]: inactive
AC50 [15]: inactive
AC50 [9]: inactive
AC50 [16]: 39.8 µM (inconclusive)
AC50 [8]: inactive
Structure (SMILES): N[C@@H](CCC(=O)O)C(=O)O [GLUTAMIC ACID]
